Source: article PMC8253220, “Molecular design, synthesis and in vitro biological evaluation of thienopyrimidine–hydroxamic acids as chimeric kinase HDAC inhibitors: a challenging approach to combat cancer” (Journal of Enzyme Inhibition and Medicinal Chemistry, 2021)
Values joined by “and” are separate entries in the source; they are usually repeats but may differ in a detail not shown here. Identical values can stand only once.

What was measured:
VEGFR-2 = VEGFR-2 (Homo sapiens, UniProt P35968); test: In vitro VEGFR-2 tyrosine kinase inhibitory assay (Z'-LYTE, SelectScreen); format: biochemical; conditions: for inhibition at 10 µM: 10 µM single dose
Method in brief: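 Z'-LYTE fluorescence coupled-enzyme format, read-out based on differential protease cleavage of phosphorylated vs non-phosphorylated peptide. Compounds screened at 10 µM single dose for % inhibition, then selected ones tested at 0.1 nM–10 µM for IC50 by curve fitting.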

786-0 = test: NCI one-dose screen; format: cell-based, human; conditions: Renal 786-0, 10 µM single dose
Method in brief: (§1)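 One concentration (10 μM) applied to each line of the full NCI-60 panel; percent growth compared against untreated cells.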

ACHN = test: NCI one-dose screen; format: cell-based, human; conditions: Renal ACHN, 10 µM single dose
Method in brief: as §1

CCRF-CEM = test: NCI one-dose screen; format: cell-based, human; conditions: Leukemia CCRF-CEM, 10 µM single dose
Method in brief: as §1

COLO 205 = test: NCI one-dose screen; format: cell-based, human; conditions: Colon COLO 205, 10 µM single dose
Method in brief: as §1

HCT-116 = test: NCI one-dose screen; format: cell-based, human; conditions: Colon HCT-116, 10 µM single dose
Method in brief: as §1

HT29 = test: NCI one-dose screen; format: cell-based, human; conditions: Colon HT29, 10 µM single dose
Method in brief: as §1

IGROV1 = test: NCI one-dose screen; format: cell-based, human; conditions: Ovarian IGROV1, 10 µM single dose
Method in brief: as §1

K-562 = test: NCI one-dose screen; format: cell-based, human; conditions: Leukemia K-562, 10 µM single dose
Method in brief: as §1

LOX IMVI = test: NCI one-dose screen; format: cell-based, human; conditions: Melanoma LOX IMVI, 10 µM single dose
Method in brief: as §1

M14 = test: NCI one-dose screen; format: cell-based, human; conditions: Melanoma M14, 10 µM single dose
Method in brief: as §1

MALME-3M = test: NCI one-dose screen; format: cell-based, human; conditions: Melanoma MALME-3M, 10 µM single dose
Method in brief: as §1

MOLT-4 = test: NCI one-dose screen; format: cell-based, human; conditions: Leukemia MOLT-4, 10 µM single dose
Method in brief: (§2)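 Percent growth inhibition, referenced to untreated control cells, was determined after a single 10 μM compound exposure in the NCI 60-cell-line anticancer screen.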

NCI-H226 = test: NCI one-dose screen; format: cell-based, human; conditions: NSCLC NCI-H226, 10 µM single dose
Method in brief: (§3)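 Compounds were tested at a single dose of 10 μM across the full NCI-60 cell line panel. Growth was expressed as percent growth relative to untreated control cells, reported as percent inhibition.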

NCI-H23 = test: NCI one-dose screen; format: cell-based, human; conditions: NSCLC NCI-H23, 10 µM single dose
Method in brief: as §2

NCI-H522 = test: NCI one-dose screen; format: cell-based, human; conditions: for Growth Percent: NSCLC NCI-H522, 10 µM single dose
Method in brief: as §3

NCI/ADR-RES = test: NCI one-dose screen; format: cell-based, human; conditions: Ovarian NCI/ADR-RES, 10 µM single dose
Method in brief: as §1

SF-268 = test: NCI one-dose screen; format: cell-based, human; conditions: CNS SF-268, 10 µM single dose
Method in brief: as §2

SK-MEL-2 = test: NCI one-dose screen; format: cell-based, human; conditions: Melanoma SK-MEL-2, 10 µM single dose
Method in brief: (§4)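 Single 10 μM dose, NCI-60 panel; read-out = % growth vs untreated controls → % inhibition.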

SNB-19 = test: NCI one-dose screen; format: cell-based, human; conditions: CNS SNB-19, 10 µM single dose
Method in brief: as §4

SNB-75 = test: NCI one-dose screen; format: cell-based, human; conditions: for Growth Percent: CNS SNB-75, 10 µM single dose
Method in brief: as §3

SR = test: NCI one-dose screen; format: cell-based, human; conditions: Leukemia SR, 10 µM single dose
Method in brief: as §1

SW-620 = test: NCI one-dose screen; format: cell-based, human; conditions: Colon SW-620, 10 µM single dose
Method in brief: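 At 10 μM, a single concentration, compounds were evaluated for antiproliferative effect in the NCI 60-line screen, with growth expressed relative to untreated control cells.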

T-47D = test: NCI one-dose screen; format: cell-based, human; conditions: Breast T-47D, 10 µM single dose
Method in brief: as §1

UACC-62 = test: NCI one-dose screen; format: cell-based, human; conditions: Melanoma UACC-62, 10 µM single dose
Method in brief: as §1

Chain of VEGFR-2 (P35968 20-1356): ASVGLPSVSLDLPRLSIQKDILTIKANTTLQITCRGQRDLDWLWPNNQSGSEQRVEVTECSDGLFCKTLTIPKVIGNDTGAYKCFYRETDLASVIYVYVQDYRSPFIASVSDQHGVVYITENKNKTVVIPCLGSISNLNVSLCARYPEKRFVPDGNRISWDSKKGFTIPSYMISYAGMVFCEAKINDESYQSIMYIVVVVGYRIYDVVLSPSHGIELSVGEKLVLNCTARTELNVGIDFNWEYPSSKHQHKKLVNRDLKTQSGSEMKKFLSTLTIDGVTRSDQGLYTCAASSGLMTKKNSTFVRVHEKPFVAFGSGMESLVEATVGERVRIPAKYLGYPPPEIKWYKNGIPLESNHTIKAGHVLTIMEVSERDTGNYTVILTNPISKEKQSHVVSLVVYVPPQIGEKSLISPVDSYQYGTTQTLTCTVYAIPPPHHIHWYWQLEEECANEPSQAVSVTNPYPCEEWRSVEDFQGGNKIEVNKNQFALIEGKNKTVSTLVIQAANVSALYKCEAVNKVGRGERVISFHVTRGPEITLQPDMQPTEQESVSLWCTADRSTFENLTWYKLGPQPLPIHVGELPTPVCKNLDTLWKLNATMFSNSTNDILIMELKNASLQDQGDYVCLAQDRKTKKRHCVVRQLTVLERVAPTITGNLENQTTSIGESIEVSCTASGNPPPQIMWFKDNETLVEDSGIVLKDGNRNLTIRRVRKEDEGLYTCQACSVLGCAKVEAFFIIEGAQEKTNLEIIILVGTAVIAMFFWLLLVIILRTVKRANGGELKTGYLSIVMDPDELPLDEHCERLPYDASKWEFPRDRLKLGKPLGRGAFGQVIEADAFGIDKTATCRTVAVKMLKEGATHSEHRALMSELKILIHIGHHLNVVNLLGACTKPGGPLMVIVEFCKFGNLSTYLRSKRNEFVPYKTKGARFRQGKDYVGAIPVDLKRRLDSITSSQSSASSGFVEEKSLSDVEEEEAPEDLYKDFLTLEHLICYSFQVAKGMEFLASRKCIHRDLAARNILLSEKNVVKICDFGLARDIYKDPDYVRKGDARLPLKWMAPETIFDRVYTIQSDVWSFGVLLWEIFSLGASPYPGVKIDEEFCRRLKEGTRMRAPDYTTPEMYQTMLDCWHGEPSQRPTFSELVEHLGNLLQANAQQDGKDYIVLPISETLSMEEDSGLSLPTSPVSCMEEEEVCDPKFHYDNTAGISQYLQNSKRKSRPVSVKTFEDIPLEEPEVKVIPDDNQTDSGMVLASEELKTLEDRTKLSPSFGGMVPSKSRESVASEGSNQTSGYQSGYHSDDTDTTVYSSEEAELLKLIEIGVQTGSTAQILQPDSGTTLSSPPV

SMILES	inhibition at 10 µM (VEGFR-2) [%]	Growth Percent (786-0)	Growth Percent (ACHN)	Growth Percent (CCRF-CEM)	Growth Percent (COLO 205)	Growth Percent (HCT-116)	Growth Percent (HT29)	Growth Percent (IGROV1)	Growth Percent (K-562)	Growth Percent (LOX IMVI)	Growth Percent (M14)	Growth Percent (MALME-3M)	Growth Percent (MOLT-4)	Growth Percent (NCI-H226)	Growth Percent (NCI-H23)	Growth Percent (NCI-H522)	Growth Percent (NCI/ADR-RES)	Growth Percent (SF-268)	Growth Percent (SK-MEL-2)	Growth Percent (SNB-19)	also measured
Cc1c(C(=O)NO)sc2ncnc(Nc3ccc(Cl)cc3)c12 [Compound 15c, 4–(4-chlorophenylamino)-N-hydroxy-5-methylthieno[2,3-d]pyrimidine-6-carboxamide]	87	108.7% and 108.78%	97.3% and 97.37%	103.4% and 103.44%	116.7% and 116.75%	100.9% and 100.92%	101.8% and 101.84%	72.7% and 72.73%	105.0%	95.8% and 95.88%	107.8% and 107.86%	102.3% and 102.31%	102.3% and 102.36%	85.6% and 85.66%	91.8% and 91.83%	74.5% and 74.57%	102.1% and 102.16%	94.8% and 94.84%	94.5% and 94.54%	94.8% and 94.85%	inhibition at 0.0001 µM (VEGFR-2; 0.1 nM compound, 10 μM ATP, read-out: % Inhibition mean, KDR (VEGFR2)): 7%; inhibition at 0.001 µM (VEGFR-2; 1 nM compound, 10 μM ATP, read-out: % Inhibition mean, KDR (VEGFR2)): 4%; inhibition at 0.01 µM (VEGFR-2; 10 nM compound, 10 μM ATP, read-out: % Inhibition mean, KDR (VEGFR2)): 7%; inhibition at 0.1 µM (VEGFR-2; 100 nM compound, 10 μM ATP, read-out: % Inhibition mean, KDR (VEGFR2)): 15%; inhibition at 1 µM (VEGFR-2; 1000 nM compound, 10 μM ATP, read-out: % Inhibition mean, KDR (VEGFR2)): 39%; IC50 (VEGFR-2; read-out: IC50 in enzyme assays VEGFR-2): 5.58 µM; inhibition at 10 µM (NCI-H522; Homo sapiens, NSCLC NCI-H522, 10 μM): 25.4%; Growth Percent (SNB-75): 79.5% and 79.59%; inhibition at 10 µM (SNB-75; Homo sapiens, CNS SNB-75, 10 μM): 20.4%; Growth Percent (SR): 102.7% and 102.79%; Growth Percent (SW-620): 102.6% and 102.65%; Growth Percent (T-47D): 90.6% and 90.65%; Growth Percent (UACC-62): 92.4% and 92.45%
Cc1c(C(=O)NCCC(=O)NO)sc2ncnc(Nc3ccccc3)c12 [Compound 19b, N-(3-(hydroxyamino)-3-oxopropyl)-5-methyl-4-(phenylamino)thieno[2,3-d]pyrimidine-6-carboxamide]	13	102.5% and 102.58%	106.3% and 106.37%	101.13%	110.7% and 110.74%	105.6% and 105.69%	104.9% and 104.96%	101.8% and 101.82%	101.9% and 101.92%	93.7%	106.1% and 106.19%	102.5% and 102.54%	107.4% and 107.47%	89.4% and 89.44%	95.7% and 95.71%	90.5% and 90.58%	97.2% and 97.26%	97.0%	108.6% and 108.65%	99.8% and 99.82%	Growth Percent (SNB-75): 81.4% and 81.46%; Growth Percent (SR): 104.5% and 104.58%; Growth Percent (SW-620): 99.6% and 99.64%; Growth Percent (T-47D): 101.18%; Growth Percent (UACC-62): 95.6% and 95.69%
Cc1c(C(=O)NCCC(=O)NO)sc2ncnc(Nc3ccc(Cl)cc3)c12 [Compound 19c, 4–(4-chlorophenylamino)-N-(3-(hydroxyamino)-3-oxopropyl)-5-methylthieno[2,3-d]pyrimidine-6-carboxamide]	21	104.9% and 104.99%	106.8% and 106.82%	104.7% and 104.72%	115.7% and 115.76%	102.1% and 102.16%	102.2% and 102.22%	105.4% and 105.45%	106.4% and 106.41%	98.8% and 98.82%	107.9% and 107.96%	104.5% and 104.57%	108.6% and 108.67%	106.8% and 106.83%	102.7%	90.0% and 90.06%	105.4% and 105.48%	97.6% and 97.68%	101.8% and 101.81%	103.7% and 103.73%	Growth Percent (SNB-75): 91.7% and 91.75%; Growth Percent (SR): 101.3% and 101.35%; Growth Percent (SW-620): 102.5% and 102.53%; Growth Percent (T-47D): 106.95%; Growth Percent (UACC-62): 101.7% and 101.73%
Cc1c(C(=O)NCCC(=O)NO)sc2ncnc(Nc3ccc(F)c(Cl)c3)c12 [Compound 19d, 4–(3-chloro-4-fluorophenylamino)-N-(3-(hydroxyamino)-3-oxopropyl)-5-methylthieno[2,3-d]pyrimidine-6-carboxamide]	26	105.3% and 105.34%	102.1% and 102.14%	105.2% and 105.23%	117.3% and 117.34%	107.3%	104.1%	106.2% and 106.28%	113.3%	98.8% and 98.84%	104.7% and 104.71%	112.6% and 112.63%	115.3% and 115.32%	104.0% and 104.06%	100.6%	95.5% and 95.56%	101.4% and 101.46%	96.4% and 96.48%	100.6% and 100.61%	98.9% and 98.91%	Growth Percent (SNB-75): 97.5%; Growth Percent (SR): 110.82%; Growth Percent (SW-620): 101.5%; Growth Percent (T-47D): 106.5% and 106.56%; Growth Percent (UACC-62): 102.3% and 102.36%
Cc1c(C(=O)NCCCC(=O)NO)sc2ncnc(Nc3ccccc3)c12 [Compound 20b, N-(4-(hydroxyamino)-4-oxobutyl)-5-methyl-4-(phenylamino)thieno[2,3-d]pyrimidine-6-carboxamide]	25	113.5% and 113.55%	103.8% and 103.87%	102.7% and 102.73%	106.5% and 106.57%	104.9% and 104.93%	102.3% and 102.36%	107.3% and 107.35%	104.9% and 104.96%	96.5% and 96.54%	112.3% and 112.35%	111.9% and 111.93%	109.4% and 109.45%	97.5% and 97.52%	99.6% and 99.63%	89.7% and 89.77%	100.6% and 100.67%	97.1% and 97.16%	102.9%	97.5% and 97.59%	Growth Percent (SNB-75): 95.6%; Growth Percent (SR): 99.2% and 99.22%; Growth Percent (SW-620): 102.0% and 102.07%; Growth Percent (T-47D): 104.4% and 104.47%; Growth Percent (UACC-62): 96.8% and 96.85%
